Experimental data taken from article PMC10245146, “CNS4 causes subtype‐specific changes in agonist efficacy and reversal potential of permeant cations in NMDA receptors” (Pharmacology Research & Perspectives, 2023).

Assays:
GluN1/2D NMDA receptors = biological target: T1, GluN1/2D NMDA receptors (UniProt O15399+P35439); assay: Current-voltage (I-V) relationship, Xenopus oocytes expressing 1/2D; assay type: cell-based; settings: for Difference in reversal potential (∆Erev) between W and WO CNS4: 100 μM CNS4; for Reversal potential (Erev): with 100 μM CNS4
T1 construct: host or cells: Xenopus oocytes (cRNA injection)
T1 sequence (O15399 28-1336, other chains not shown): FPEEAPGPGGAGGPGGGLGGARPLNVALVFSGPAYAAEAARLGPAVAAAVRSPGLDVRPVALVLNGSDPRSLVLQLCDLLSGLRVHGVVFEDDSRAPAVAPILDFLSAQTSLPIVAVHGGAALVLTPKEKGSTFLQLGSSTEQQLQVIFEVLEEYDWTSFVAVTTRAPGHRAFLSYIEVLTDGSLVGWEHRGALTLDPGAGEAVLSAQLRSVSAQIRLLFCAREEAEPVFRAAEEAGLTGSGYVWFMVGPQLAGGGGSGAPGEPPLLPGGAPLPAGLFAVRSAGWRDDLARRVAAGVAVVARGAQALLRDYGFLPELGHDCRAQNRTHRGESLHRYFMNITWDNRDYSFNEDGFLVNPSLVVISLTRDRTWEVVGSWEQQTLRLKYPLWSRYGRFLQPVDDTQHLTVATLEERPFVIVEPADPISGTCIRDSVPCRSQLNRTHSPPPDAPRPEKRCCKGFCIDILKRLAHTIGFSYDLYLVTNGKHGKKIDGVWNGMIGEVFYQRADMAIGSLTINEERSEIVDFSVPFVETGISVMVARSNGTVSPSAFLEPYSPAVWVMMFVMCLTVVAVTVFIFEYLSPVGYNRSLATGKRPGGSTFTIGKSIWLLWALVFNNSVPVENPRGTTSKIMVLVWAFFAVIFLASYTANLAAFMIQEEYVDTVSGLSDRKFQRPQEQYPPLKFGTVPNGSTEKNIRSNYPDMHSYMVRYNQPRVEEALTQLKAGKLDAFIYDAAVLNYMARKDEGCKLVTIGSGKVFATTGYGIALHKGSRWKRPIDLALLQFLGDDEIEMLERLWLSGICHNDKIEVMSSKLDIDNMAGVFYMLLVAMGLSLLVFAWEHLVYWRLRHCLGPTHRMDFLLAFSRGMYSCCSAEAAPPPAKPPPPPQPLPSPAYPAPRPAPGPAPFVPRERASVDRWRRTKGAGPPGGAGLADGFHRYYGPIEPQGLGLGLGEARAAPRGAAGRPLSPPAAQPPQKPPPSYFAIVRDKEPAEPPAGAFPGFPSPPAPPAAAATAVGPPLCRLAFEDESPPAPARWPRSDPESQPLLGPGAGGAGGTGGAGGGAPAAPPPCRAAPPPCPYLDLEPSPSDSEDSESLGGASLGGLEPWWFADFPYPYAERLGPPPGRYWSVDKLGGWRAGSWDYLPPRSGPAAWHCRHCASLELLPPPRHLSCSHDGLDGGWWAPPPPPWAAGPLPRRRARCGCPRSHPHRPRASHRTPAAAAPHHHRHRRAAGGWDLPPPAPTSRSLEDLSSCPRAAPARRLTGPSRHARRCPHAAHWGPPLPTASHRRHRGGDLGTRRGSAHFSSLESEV
Procedure: There are two sets of recording solutions used for the I‐V assay: solutions with normal (1) and low (2) Ca^2+ concentrations. The normal Ca^2+ solutions contained (mM): 115 NaCl, 1 KCl, 1.8 CaCl2, 10 HEPES. PH was adjusted to 7.2. Low calcium solutions contained 0.018 mM CaCl2 and other components were the same as normal Ca^2+ solution. To study the effects of CNS4 in the absence of extracellular Na^+, NaCl was replaced with impermeable agent, N‐methyl‐D‐glucamine (NMDG, […]). HCl was used to dissolve the NMDG and to adjust the PH to 7.2. NMDG‐containing solutions are termed Nafree. […] There were four different agonist solutions used for each set of Ca^2+ recordings: (1) Agonist, (2) Agonist+CNS4, (3) Agonist in Nafree solution, (4) Agonist+CNS4 in Nafree solution. Each solution was applied to the oocytes in sequential order and the same order was followed for all I‐V recordings. Low Ca^2+ experiments were carried out in the same way as normal Ca^2+ experiments, except that they had 0.018 mM Ca^2+ in all four agonist and recording solutions. Steady state current responses evoked by these solutions at each voltage step were measured. Reversal potentials (Erev) were obtained from x‐intercept values when y = 0 after fitting the I‐V data using a third order polynomial, non‐linear curve fitting equation Y=B0+B1^*X+B2^*X^2+B3^*X^3 . Erev obtained from each oocyte with different agonists were compared in a pairwise manner. These differences were then averaged. Paired or unpaired student t‐test was performed to compare the data as mentioned in each figure legend.
FIGURE 6 Effect on CNS4 on agonist induced current directions in 1/2D receptors. Current –Voltage (I‐V) relationship of 1/2D receptors was studied with normal (A) and low (B) CaCl2 containing extracellular solutions. […] Dark and light green circles indicate normal and low CaCl2 experiments, respectively. (C) Comparison of reversal potentials values. Dark and light red squares indicate equivalent I‐V experiments with NMDG (Nafree). Dotted and thick lines denote the absence (empty circles or squares) and presence (filled circles or squares) of 100 μM CNS4, respectively. Traces (Ai&ii, Bi&ii) represent the current response at −90 mv. N = 4 (4) & n = 7(7) for normal & low Ca^2+ assays respectively. Erev obtained from each oocyte with different agonists were compared in a pairwise manner. Paired student t‐test was performed to compare the data presented at Ci. Unpaired student's t‐test was performed to compare the difference in reversal potentials (triangles). *p < .05.

[1] = biological target: T2, E781A_1/2A mutant receptor (UniProt P35439+Q12879, E781A); assay: TEVC glutamate dose-response, GluN1 E781A mutant with wild type GluN2A; assay type: cell-based; set-up: Glutamate efficacy: unit not given here
T2 construct: expressed in transfected cells; host or cells: Xenopus oocytes (cRNA injection)
T2 sequence (Q12879 23-1464, other chains not shown): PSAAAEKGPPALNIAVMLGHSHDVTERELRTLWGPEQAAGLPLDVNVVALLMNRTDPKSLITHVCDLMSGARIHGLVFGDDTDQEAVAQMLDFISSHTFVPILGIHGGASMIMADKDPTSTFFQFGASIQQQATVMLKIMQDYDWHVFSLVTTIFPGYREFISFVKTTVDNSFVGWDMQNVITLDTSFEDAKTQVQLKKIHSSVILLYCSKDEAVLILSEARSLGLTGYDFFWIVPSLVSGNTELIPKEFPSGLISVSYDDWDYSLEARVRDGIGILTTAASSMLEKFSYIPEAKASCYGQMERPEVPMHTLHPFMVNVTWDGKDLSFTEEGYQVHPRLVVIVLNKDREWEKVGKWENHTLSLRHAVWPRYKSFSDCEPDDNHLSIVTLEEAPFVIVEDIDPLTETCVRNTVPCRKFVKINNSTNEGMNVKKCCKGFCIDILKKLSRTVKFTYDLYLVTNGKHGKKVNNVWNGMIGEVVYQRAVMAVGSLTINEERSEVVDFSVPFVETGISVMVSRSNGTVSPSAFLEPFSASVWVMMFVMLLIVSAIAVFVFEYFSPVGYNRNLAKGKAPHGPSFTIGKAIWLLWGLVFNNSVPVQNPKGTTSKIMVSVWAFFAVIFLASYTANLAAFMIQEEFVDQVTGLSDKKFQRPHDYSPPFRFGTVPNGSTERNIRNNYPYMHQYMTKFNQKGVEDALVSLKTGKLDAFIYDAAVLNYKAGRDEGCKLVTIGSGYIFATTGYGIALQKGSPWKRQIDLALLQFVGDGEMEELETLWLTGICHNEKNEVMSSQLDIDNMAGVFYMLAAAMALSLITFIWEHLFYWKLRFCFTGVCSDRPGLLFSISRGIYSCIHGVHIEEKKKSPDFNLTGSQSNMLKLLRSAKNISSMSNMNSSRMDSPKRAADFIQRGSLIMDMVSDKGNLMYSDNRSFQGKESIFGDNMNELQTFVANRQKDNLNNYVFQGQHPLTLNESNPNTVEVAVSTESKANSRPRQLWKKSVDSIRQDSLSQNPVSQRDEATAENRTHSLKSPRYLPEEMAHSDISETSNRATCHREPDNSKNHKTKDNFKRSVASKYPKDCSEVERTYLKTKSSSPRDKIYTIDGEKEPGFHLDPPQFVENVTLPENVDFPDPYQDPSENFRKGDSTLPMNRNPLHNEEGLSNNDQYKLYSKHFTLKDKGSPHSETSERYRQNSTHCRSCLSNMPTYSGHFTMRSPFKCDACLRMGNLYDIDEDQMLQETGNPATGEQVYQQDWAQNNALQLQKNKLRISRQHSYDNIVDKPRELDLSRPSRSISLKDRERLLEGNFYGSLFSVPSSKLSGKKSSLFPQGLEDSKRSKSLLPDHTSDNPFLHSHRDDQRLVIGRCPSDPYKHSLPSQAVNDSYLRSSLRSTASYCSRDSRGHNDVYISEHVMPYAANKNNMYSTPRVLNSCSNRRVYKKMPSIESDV
Excerpt: NMDA receptor constructs: cDNA encoding the NMDA receptor1a subunit (GluN1a) was obtained from Dr. Nakanishi (Kyoto, Japan). cDNA encoding the GluN2B (pci_sepGluN2B), originally developed in the Malinow lab,[33] was purchased from Addgene (cat# 23998), Cambridge, MA. cDNA encoding the GluN2C and GluN2D were purchased from GenScript, New Jersey, USA. Mutated GluN1, 2A and 2B cDNA constructs capable of assembling as GluN1/2A/2B triheteromeric (1/2AB) receptors[34] were obtained from Dr. Paoletti (Laboratoire de Neurobiologie, CNRS). These constructs have been previously tested for 1/2AB receptor activity of GluN1/2A receptor‐selective potentiators.[35] […] Plasmids were linearized with NotI (GluN1a and all five GluN1 mutants) or Avrll (GluN2B), or BstB1 (GluN2C and GluN2D) and transcribed in vitro with T7 (GluN1a, GluN1/2A, GluN2B, GluN2C & GluN2D), and SP6 (GluN1 mutants) RNA polymerase using the mMessage mMachine transcription kits (Invitrogen by Thermo Fisher Scientific).
Electrophysiological responses were measured using a standard two‐microelectrode voltage‐clamp workstation (Warner Instruments model OC‐725C) designed to provide a fast clamp of large cells. The recording buffer contained 116 mM NaCl, 2 mM KCl, 0.3 mM BaCl2, and 5 mM HEPES, pH 7.4. Response magnitude was determined in Xenopus oocytes expressing different NMDA receptor subunits (GluN1/2A, 1/2B, 1/2C, 1/2D, and 1/2A/2B) by the steady plateau response elicited by bath application of different agonist concentrations. […] All data points were obtained from the steady state currents unless stated otherwise. Dose–response relationships were fit to an appropriate curve‐fitting equation using GraphPad Prism‐7. Non‐linear regression was used to calculate EC50, IC50, and fold change or percentage maximal response. Curves were fit using the following equations as performed in the previous studies, [37]: Y=100/1+10^LogEC50−XorY=Bottom+Top−Bottom/1+10^LogEC50−X . Statistical significance was determined at the overall alpha level 0.05, using appropriate statistical methods as described in all figure captions. […]

SMILES: O=C(NC(=S)N1CCCCC1c1cccnc1)c1ccc(F)cc1 (stereo not shown) [CNS4]
- Difference in reversal potential (∆Erev) between W and WO CNS4 (GluN1/2D NMDA receptors; low Ca2+, Nafree, n = 6): −6.22 ± 4.08 mV
- Difference in reversal potential (∆Erev) between W and WO CNS4 (GluN1/2D NMDA receptors; low Ca2+, with Na+, n = 7): −26.55 ± 7.66 mV
- Difference in reversal potential (∆Erev) between W and WO CNS4 (GluN1/2D NMDA receptors; normal Ca2+, Nafree, n = 4): −2.21 ± 2.14 mV
- Difference in reversal potential (∆Erev) between W and WO CNS4 (GluN1/2D NMDA receptors; normal Ca2+, with Na+, n = 4): −0.22 ± 2.08 mV
- Reversal potential (Erev) (GluN1/2D NMDA receptors; low Ca2+, with Na+, without CNS4 ‐44.02 ± 6.04, p = .013): −70.57 ± 6.44 mV
- Reversal potential (Erev) (GluN1/2D NMDA receptors; normal Ca2+, Nafree, without CNS4 −77.99 ± 1.77, p = .378): −80.20 ± 2.54 mV
- Reversal potential (Erev) (GluN1/2D NMDA receptors; normal Ca2+, with Na+, without CNS4 −61.43 ± 5.26, p = .919): −61.66 ± 5.55 mV
- Glutamate efficacy, E781A mutant compared to wild type 1/2A ([1]; absence of glycine, presence of CNS4, 100 μM glutamate): ~ 34 fold
- 100 μM glutamate induced relative current amplitude (glutamate efficacy) ([1]; absence of glycine, presence of CNS4, n = 6 (3), p = .001 vs wild type): 1.39 ± 0.29 fold
- Glutamate efficacy ([1]; in the presence of 30 μM glycine and 30 μM CNS4, n = 5 (4), p = .11 vs wild type): 118.5 ± 40.87
